The subject of assay [1] is corticosterone (a glucocorticoid in rats). In words: Assay for determining the inhibition of glucocorticoids: serum corticosterone by radioimmunoassay. The format is in vivo, Sprague-Dawley rats. Conditions: 2 mg/kg intraperitoneally once daily for eight days; for CORTICOSTERONE: serum, control 161. On the procedure:
(§1) In each experiment, at least six rats per treatment group were used. After eight days of treatment, the rats were sacrificed.
(§2) The level of steroids in the rats was measured by radioimmunoassay from organic extracts of the collected serum. The levels of corticosterone (a glucocorticoid in rats) and testosterone were measured by radioimmunoassay using antibodies from Endocrine Sciences (Tarlana, Calif., USA) under conditions described by the supplier. The level of plasma ACTH was measured by radioimmunoassay using the method of Crousos, et al., New Engl. J. Med. 310:622 (1984). The level of aldosterone was measured by radioimmunoassay using a kit from Diagnostics Products Corp. (Los Angeles, Calif., USA).

In the next assay the test system is testosterone. The assay can be described thus: Serum testosterone by radioimmunoassay in treated rats. The format is in vivo, Sprague-Dawley rats. Conditions: 2 mg/kg intraperitoneally once daily for eight days; for TESTOSTERONE: serum, control 4.50. On the procedure: as §1, §2
Assay [2] addresses 18 Kd peripheral benzodiazepine receptor protein. The assay can be described thus: Benzodiazepine radioligand binding assay ([3H]PK 11195) in adrenal mitochondria. On the set-up: species or system rat. The protocol:
See, Garnier, et al., Endocrinology 132:444 (1993). Mitochondria were prepared as described in Krueger, et al., J. Biol. Chem. 265:15015 (1990). Mitochondria ([…] of protein) were resuspended in phosphate buffered saline (PBS) and [^3H]PK 11195 (New England Nuclear, Wilmington, Del., USA). Binding studies were performed at 4° C. in a final incubation volume of 0.3 ml, using radioligand in the concentration range of 0.019-20.00 nM and 200 fold excess of unlabeled PK 11195 (Research Biochemicals, Natick, Mass., USA), as described in Garnier, et al., Endocrinology 132:444 (1993) and Garnier, et al., Mol. Pharm. 45:201 (1994). After 120 min. incubation time, the assay was stopped by filtration through Whatman GF/C filters and washed with 15 ml ice-cold PBS. Radioactivity trapped on the filters were determined by liquid scintillation counting at 50% counting efficiency. The dissociation constant (Kd) and the number of binding sites (Bmax) were determined by […] analysis of the data using the ligand™ program (Kell, V.4.0, Biosoft, Inc.). See Munson, et al., Anal. Biochem. 107:220 (1980).

For a further assay, the system named is aldosterone. The assay can be described thus: Serum aldosterone by radioimmunoassay in treated rats. The following applies: 2 mg/kg intraperitoneally once daily for eight days; for ALDOS-STERONE: serum, control 685. Format: in vivo, Sprague-Dawley rats. On the procedure: as §1, §2
For the next assay, the system named is plasma ACTH. The assay can be described thus: Plasma ACTH by radioimmunoassay in treated rats. The format is in vivo, Sprague-Dawley rats. The following applies: 2 mg/kg intraperitoneally once daily for eight days; for ACTH: plasma, control 28.0. On the procedure: as §1, §2
Assay [3] has as its system peripheral benzodiazepine receptor mRNA. In words: mRNA expression of benzodiazepine receptor in adrenal tissue (RNA blot, PBR cDNA probe). On the set-up: species or system rat. The following applies: adrenal tissue total RNA, densiometric analysis. On the procedure: mRNA Expression of Benzodiazepine Receptor The ginkgolide induced decrease in mRNA expression of the benzodiazepine receptor was also confirmed. Total cellular RNA from adrenal tissue was isolated by the acid guanidinium thiocyanate-phenol-chloroform extraction method (Chomczynski, et al., Anal. Biochem. 162:156-159 (1987)) using the RNAzol B reagent (Tel-Test Inc., Friendswood, Texas, USA). RNA electrophoresis transfer, probe labelling, and membrane hybridization were performed as previously described in Dym, et al., Endocrinology 128:1167-1176 (1991). RNA was size-fractionated by electrophoresis and transferred to derivatized nylon membranes (Nytran Plus, Schleicher & Schuell, Keene, New Hampshire, USA). The blots were then hybridized against the [^32p] cDNA probe for PBR labelled by the random priming technique. The 781 base-pair probe for PBR mRNA used was prepared as previously described in Garnier, et al., Endocrinology 132:444-458 (1993). Screen enhanced autoradiography was performed by exposing Kodak X-OMAT AR films to the blots at −80° C for 48 hours. Densiometric analysis of the spots was performed as described above.

The values below come from patent US20020006955A1, “Ginkgolides for inhibition of membrane expression of benzodiazepine receptors” (priority 1995, published 2002).

pKd: −log10 of the molar value.

On to `C[C@@H]1C(=O)O[C@H]2C[C@@]34[C@H]5C[C@@H](C(C)(C)C)[C@]36[C@@H](OC(=O)[C@@H]6O)O[C@@]4(C(=O)O5)[C@]21O` [Ginkgolide A, ginkgolide A], for which, in assay [1], the “effect on the level of corticosterone in the rats” value is listed as “decrease” and the CORTICOSTERONE is 66 ng/mL. Besides, in the assay with testosterone, the “effect on serum levels of testosterone” value was “unaffected” and the TESTOSTERONE was 4.75 ng/mL. The negative logarithm of the Kd (pKd) in assay [2] (dissociation constant of radioligand [3H]PK 11195 in adrenal mitochondria after treatment with the substance, 4° C., 120 min, control 1.7) was 8.89. For the same compound, the “decrease of expression of the 18 Kd peripheral benzodiazepine receptor protein” value in assay [2] (from Bmax versus control, adrenal mitochondria) was determined as 50%. Moreover, the Bmax in assay [2] (number of [3H]PK 11195 binding sites in adrenal mitochondria after treatment with the substance, control 11.2) is given as 5.6 pmol/mg. Also, in the assay on aldosterone, the “effect on serum levels of aldosterone” value is reported as “unaffected” and the ALDOS-STERONE was 638 pg/mL. In the assay on plasma ACTH, the “effect on ACTH release” value was “increase ACTH release” and the ACTH was found to be 103 pg/mL.

As to `CC1C(=O)OC2C(O)C34C5CC(C(C)(C)C)C36C(OC(=O)C6O)OC4(C(=O)O5)C12O` (centres unmarked) [Ginkgolide B, ginkgolide B], in assay [1], the “effect on the level of corticosterone in the rats” value is “decrease” and the CORTICOSTERONE stood at 75 ng/mL. Besides, in the assay with testosterone, the “effect on serum levels of testosterone” value was “unaffected” and the TESTOSTERONE was determined as 4.50 ng/mL. In assay [3], the “reduction of peripheral benzodiazepine receptor mRNA expression” value was found to be 85%. In the assay with aldosterone, the “effect on serum levels of aldosterone” value is recorded as “unaffected” and the ALDOS-STERONE came out at 893 pg/mL. In the assay with plasma ACTH, the “effect on ACTH release” value was “increase ACTH release” and the ACTH was found to be 71.4 pg/mL.
